Experimental data as given in patent US5274076A, “Hydrophilic derivatives, their application to diagnosis and to therapeutics, diagnostic or therapeutic kits and immunological reagents” (Immunotech Partners, priority 1989, dated 1993).
Residues, ends and D or L forms follow the SMILES beside them. Groups on a side chain read outwards from the residue. *: point of attachment. DTPA = O=C(O)CN(CCN(CC(=O)O)CC(=O)O)CCN(CC(=O)O)CC(=O)*

What was measured:
[1] = system: human melanoma cells (A375); experiment: Radioimmunoscintigraphy and organ radioactivity counting of human melanoma grafted on nude mice, pretargeted with anti-melanoma anti-DTPA-indium dual specificity conjugate; format: in vivo; settings: for specificity of tumour binding: A375 tumour in nude mice
Protocol: Radioimmunoscintigraphy of human melanoma grafted on to nude mice with anti-melanoma anti-DTPA indium dual specificity conjugates and N-α-DTPA-tyrosyl-N-ε-DTPA-lysine labelled with indium 111.
(§1) 3.10^6 human melanoma cells (A375) are injected subcutaneously into the abdomen of nude mice. 3 to 4 weeks later the mice develop tumours of 0.5 to 2 g. The mice are then injected with 2 to 10 μg of dual specificity conjugate prepared by chemical coupling of the F(ab)'2 fragment of a […] anti-melanoma antibody (mouse monoclonal antibody IgG1, kappa) to the reduced F(ab)'2 fragment of an anti-DTPA-indium antibody (mouse monoclonal antibody IgG1, lambda) using the heterobifunctional reagent EMCS.
(§2) Twenty four hours later, mice are injected with 10 μCi of the derivative of Example 1 labelled with indium-111. Images are then produced at selected time intervals using a Sopha Medical Gammatome 2 gamma camera equipped with a medium energy high-resolution collimator or the animals are killed and the major organs and the tumour are measured for radioactivity associated with indium-111 using a gamma counter.

[2] = system: human melanoma cells (A375); experiment: Comparison of indium-111-labelled probes in the labelling of tumours in mice (tumour/organ contrast); format: in vivo, nude mice; settings: for Contrast cpm/g in the tumour/cpm/g in the organ: Heart / Contrast cpm/g in the tumour/cpm/g in the organ: Kidneys / Contrast cpm/g in the tumour/cpm/g in the organ: Liver / Contrast cpm/g in the tumour/cpm/g in the organ: Lung / Contrast cpm/g in the tumour/cpm/g in the organ: Plasma / Contrast cpm/g in the tumour/cpm/g in the organ: Spleen: 3 hours after injection of the radiolabelled probe
Protocol: as §1, §2
Comparison between compound 1 labelled with indium-111 and di-(DNP-lys)-DTPA in the labelling of tumours in mice.
Experiments are carried out as in Example 5 but the mice are given indium-111-labelled di-(DNP-lys)-DTPA (derivative 1 of French Patent Application 86.13146) instead of the derivative 1 described above. Three hours after injection of the probe, the mice are dissected and the gamma radioactivity of the major organs and tumour is counted. It is observed that the tumour accumulates a dose of radioactivity equivalent to that Obtained with the two compounds of Example 1 of the present invention. However, the elimination of the excess radioactivity is substantially more rapid with the compounds of the present invention, as shown by the following table: […]

[3] = Tolerance to probes in animals; format: in vivo, BALB/c mice; settings: 10 nanomoles, observed 16 days; compounds 1 and 2 complexed with non-radioactive indium
Protocol: Doses corresponding to 10 nanomoles, i.e. about 10,000 times more than the dose required for radioimmunoscintigraphy, of compounds 1 and 2 previously complexed with non-radioactive indium and compound 3 are administered to BALB/c mice. These mice are then observed for 16 days under normal breeding conditions.

[4] = indium-111 labelled, after dual specificity conjugate
[5] = radioactivity measured after 24 hours

| Molecule | specificity of tumour binding [1] | Contrast cpm/g in the tumour/cpm/g in the organ: Heart [2] | Contrast cpm/g in the tumour/cpm/g in the organ: Kidneys [2] | Contrast cpm/g in the tumour/cpm/g in the organ: Liver [2] | Contrast cpm/g in the tumour/cpm/g in the organ: Lung [2] | Contrast cpm/g in the tumour/cpm/g in the organ: Plasma [2] | Contrast cpm/g in the tumour/cpm/g in the organ: Spleen [2] | signs of toxicity [3] | weight gain versus control animals [3] | further results |
| --- | --- | --- | --- | --- | --- | --- | --- | --- | --- | --- |
| O=C(O)CN(CCN(CC(=O)O)CC(=O)O)CCN(CC(=O)O)CC(=O)NCCCC[C@H](NC(=O)[C@H](Cc1ccc(O)cc1)NC(=O)CN(CCN(CCN(CC(=O)O)CC(=O)O)CC(=O)O)CC(=O)O)C(=O)O [Example 1, N-α-DTPA-tyrosyl-N-ε-DTPA-lysine] ({DTPA}-Tyr-Lys(DTPA)-OH) | specific | 14.9 | 3.5 | 10.8 | 8.2 | 1.7 | 12.7 | No sign of toxicity | not significantly different | tumour accumulation of radioactivity without dual specificity conjugate or with conjugate specific for another tumour antigen ([1]; control without or with irrelevant conjugate): did not accumulate significant amounts of radioactivity; time after injection at which tumours can be observed on gamma camera images ([1]; indium-111 labelled, 10 μCi, 24 h after dual specificity conjugate): Only a few minutes; non-specific accumulation of radioactivity [1, 4]: essentially limited to the kidneys; time in which a large majority of the circulating radioactivity is eliminated [1, 4]: less than 24 hours; time in which radioactivity bound to the tumour is established [1, 4]: within a few hours; time radioactivity bound to the tumour remains stable [1, 4]: at least two days; tumour/organ ratio (T/O), all organs except the kidneys [1, 5]: > 3; tumour/organ ratio (T/O), kidneys [1, 5]: 0.7 |
| O=C(O)CN(CCN(CC(=O)O)CC(=O)O)CCN(CC(=O)O)CC(=O)NCC(=O)NCCCC[C@H](NC(=O)CNC(=O)CN(CCN(CCN(CC(=O)O)CC(=O)O)CC(=O)O)CC(=O)O)C(=O)N[C@@H](Cc1ccc(O)cc1)C(=O)O [Example 2, N-α-N-ε-di-(DTPA-glycyl)-lysyl-tyrosine] ({DTPA}-Gly-Lys([Gly-DTPA])-Tyr-OH) | – | – | – | – | – | – | – | No sign of toxicity | not significantly different | – |
| O=C(CCC(=O)NCC(=O)NCCCC[C@H](NC(=O)CNC(=O)CCC(=O)NCCc1cnc[nH]1)C(=O)N[C@@H](Cc1ccc(O)cc1)C(=O)O)NCCc1cnc[nH]1 [Example 3, N-α-N-ε-di-(histamine-succinyl-glycyl)-lysyl-tyrosine] | – | – | – | – | – | – | – | No sign of toxicity | not significantly different | – |
| DTPA [indium-111-labelled DTPA, reference compound] | little specific binding is observed | – | – | – | – | – | – | – | – | elimination/excretion of radioactivity ([1]; mouse, in vivo): excreted very rapidly |
| di-(DNP-lys)-DTPA [derivative of the prior art] | – | 2.1 | 1.0 | 1.3 | 0.9 | 0.2 | 1.8 | – | – | dose of radioactivity accumulated by the tumour compared with Example 1 ([2]; 3 hours after injection, indium-111 labelled): equivalent |
